Test results reported in PubChem BioAssay (NCI).
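Exposure lasted 48 hours, with cells grown in 96-well plates and compounds tested at five concentrations. TGI denotes the concentration required for complete inhibition of growth.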

Key:
Assay in all cases: growth of human tumour cells (NCI), 48 h
[1] = system: A549 NSCLC
[2] = system: EKVX NSCLC
[3] = system: K-562 leukemia
[4] = system: NCI-H522 lung
[5] = system: SNB-19 CNS
[6] = system: T-47D breast
[7] = system: HCT-15 colon
[8] = system: MDA-MB-435
[9] = system: NCI-H23 lung
[10] = system: RXF 393 renal

SMILES	TGI [1] [µM]	TGI [2] [µM]	TGI [3] [µM]	TGI [4] [µM]	TGI [5] [µM]	TGI [6] [µM]	TGI [7] [µM]	TGI [8] [µM]	TGI [9] [µM]	TGI [10] [µM]
O=c1cc(-c2ccccc2)[nH]c2ncccc12	> 100	> 100	> 100	0.702	> 100	> 100				
Cc1nn(C(=O)c2ccccc2O)c2c1C(c1ccc(O)cc1O)SC(N)=N2 (stereo not given)	> 10	> 10	> 10		> 10		> 10	> 10	> 10	> 10
CCOC(=O)/C=C/C(=O)O/C=C/[N+](=O)[O-]		> 100		> 100		> 100	> 100	> 100	> 100	> 100
O=C1c2ccccc2C(=O)N1n1c(Cc2ccc(Cl)cc2)n[nH]c1=O	> 100	> 100	> 100		> 100	> 100	> 100	> 100	> 100	
O=P(O)(O)c1ccc(-c2ccc(I)cc2)cc1	> 100	> 100	> 100	> 100	> 100	> 100	> 100		> 100	> 100
Cc1cc(=O)oc2cc(OCCCOc3ccc4c(C)cc(=O)oc4c3)ccc12	> 100	> 100	> 100		> 100		> 100		> 100	> 100
CC(C)(C)NC1=NC(C(F)(F)F)(C(F)(F)F)NC(=O)N1	> 100	> 100	> 100		> 100	> 100	> 100	> 100	> 100	> 100
O=C(CN1CCCC1=O)CS(=O)(=O)c1ccccc1	> 100	> 100	> 100	> 100	> 100			> 100	> 100	> 100
Nn1c(Nc2ccc(S(N)(=O)=O)cc2)nnc(/C=C/c2c(O)ccc3ccccc23)c1=O	92.4	34.2	34.5	33	> 100	40.6	30.4	50.1	22.4	
COc1ccc2nc3c([N+](=O)[O-])ccc(NCCN(C)C)c3c(N)c2c1	3.29	3.79	0.607		3.98	2.91	2.49		3.73	3.36
Cn1c(-c2ccc(-c3cc(-c4cccs4)c(-c4cccs4)n3C)cc2)cc(-c2cccs2)c1-c1cccs1	> 100	> 100	> 100		> 100	> 100	> 100	> 100		> 100
COC1=C[C@]2(CCC(=O)O2)[C@@H]2Cc3ccccc3[C@H](O)[C@@H]2C1=O	> 100	> 100	> 100	44.4	> 100	37.7	> 100	31	> 100	
COC(=O)[C@H](CC(C)C)NC(=O)[C@H](Cc1ccccc1)N1CC2C=CC1C2 (stereo not given in full)	> 100	> 100	> 100	> 100	> 100		> 100		> 100	> 100
COC(=O)CN(CC(=O)NCCCBr)C1CCCCC1N(CC(=O)OC)CC(=O)OC (stereo not given)	> 100	> 100	> 100	> 100	> 100	> 100	> 100	> 100	> 100	
O=C1C=C(Nc2ccccc2C(=O)CC(=O)C(=O)Nc2ccc(Cl)cc2)c2ccccc2C1=O	32.4	99	40.9	26.1	43.9		24.8		29.6	45.9
Cc1ccccc1NC(=O)Cc1csc(N/N=C2\NC(=O)/C(=C/c3cccc([N+](=O)[O-])c3)S2)n1	44.5	32.8			34	55.1	29.3	39.5	42.7	
CC#C[C@]1(O)CCC2[C@@H]3CCC4=CC(=O)CCC4=C3[C@@H](c3ccc(N(C)C)cc3)C[C@@]21C (stereo not given in full)	> 100	53	58.8		98.3	> 100	> 100	34	62.1	
CC1=NN(C(=O)Cc2ccccc2)C(=O)/C1=C\c1ccc([N+](=O)[O-])cc1	> 100	> 100	> 100	> 100	> 100		> 100		> 100	> 100

SMILES	TGI [1] [µM]	TGI [2] [µM]	TGI [3] [µM]	TGI [4] [µM]	TGI [5] [µM]	TGI [6] [µM]	TGI [7] [µM]	TGI [8] [µM]	TGI [9] [µM]	TGI [10] [µM]
O=C(NC(=S)Nc1ccc([N+](=O)[O-])cc1)c1ccc2c(c1)Sc1ccccc1O2	> 100		> 100	> 100	> 100	> 100	> 100	> 100	> 100	
CC(C)(C)N/N=C(\C(=O)Nc1cccc(Cl)c1)C1C(=O)Nc2ccccc2S1=O (stereo not given)	> 100	> 100		> 100	> 100		> 100		> 100	> 100
COc1cccc2c1C(=O)c1c(O)c3c(c(O)c1C2=O)C[C@@](O)(C(C)=O)CC3S(=O)(=O)O (stereo not given in full)	> 100	> 100	> 100	> 100	> 100		> 100		> 100	> 100
COc1ccc2c(c1)Oc1cc(O)ccc1[C@H]2c1ccccc1C(=O)NC(C)c1ccccc1 (stereo not given in full)	31.5	33.5	> 100	28	33		35.5		32.5	42
O=C(Cc1nc2ccc(C(=O)c3ccccc3)cc2[nH]c1=O)C(=O)Nc1nc2ccccc2[nH]1	> 100	> 100		> 100	> 100		> 100		> 100	
Fc1ccc(-c2sc(-c3ccsc3)cc2Cc2ccsc2)cc1	> 10	> 10	> 10			> 10	> 10	> 10	> 10	> 10
COc1cc(CC(C)=O)cc(OC)c1	> 100	> 100	> 100		> 100	> 100	> 100	> 100	> 100	
CC(=O)OCC1OC(N2C(=O)NC(=O)C3C=C4CCCCC4=CC32)CC1OC(C)=O (stereo not given)	> 100	> 100	> 100	> 100	> 100	> 100	> 100	> 100		
COc1cc(C2c3cc4c(cc3OC(NNC(N)=O)C2C)OCO4)cc(OC)c1OC (stereo not given)	> 100	99.7	2.82	0.344	> 100	> 100			> 100	> 100
O=C(c1ccccc1)N1CCN(C(=S)NC2CCCCC2)C1=S	30.6	38.3	96.8	30.6		53.1	33.2	38	36.1	
CCC12CCCN(Cc3ccccc3)C1c1c(n(C)c3ccccc13)C(CO)C2 (stereo not given)	> 257	245	107	66.7	186		78.1		158	> 257
COC(C/C(=C/CO[Si](C(C)C)(C(C)C)C(C)C)C(=O)N(C(=O)OC(C)(C)C)c1ccccc1I)OC	> 100		> 100	18.3	> 100	> 100	> 100	> 100	> 100	
O=c1[nH]c(=O)c2ncn(-c3ccc([N+](=O)[O-])cn3)c2[nH]1	> 100	> 100	> 100		> 100	> 100	> 100	> 100	> 100	> 100
O=c1[nH]c2ccccc2c(O)c1Cc1ccccc1	> 100	> 100	> 100	> 100	> 100		> 100	> 100	> 100	> 100
CCc1cc(C)cc2[n+]1CC=C2	78.6	87.9		51.9	> 100				53.8	> 100
COc1cc(C2S/C(=C/c3ccccc3)C(=O)N2Cc2ccccc2)cc(OC)c1OC (stereo not given)	> 100	> 100	> 100	62.8	> 100	41.1	> 100	> 100	> 100	
Cc1ccc(/C=C/C(=O)Oc2ccc(/C=C3\CCC/C(=C\c4ccc(OC(=O)/C=C/c5ccc(C)cc5)cc4)C3=O)cc2)cc1	> 100	> 100		> 100	> 100	> 100	> 100	> 100	> 100	
Nc1nc(NCCOCP(=O)(O)O)c([N+](=O)[O-])c(=O)[nH]1	> 100	> 100	> 100	> 100	> 100				> 100	> 100
